Measured values from paper PMC4994520 (European journal of medicinal chemistry, 2012).

Target: human PDE5 (Homo sapiens, UniProt O76074)
Assay: PDE5 inhibition, IMAP fluorescence polarization phosphodiesterase assay
Assay type: biochemical
Conditions: for inhibition at 10 µM: read-out: % PDE5 inhibition at 10 μM

An inhibition at 10 µM of 10% was found for COC(=O)[C@H]1Cc2c([nH]c3ccccc23)[C@@H](c2ccc(Br)cc2)N1 [Compound 1, Methyl (1R,3R)-1-(4-bromophenyl)-2,3,4,9-tetrahydro-1H-β-carboline-3-carboxylate] in this work.

An inhibition at 10 µM of 10% was found for COC(=O)[C@H]1Cc2c([nH]c3ccccc23)[C@H](c2ccc(Br)cc2)N1 [Compound 2, Methyl (1S,3R)-1-(4-bromophenyl)-2,3,4,9-tetrahydro-1H-β-carboline-3-carboxylate] in this work.

An inhibition at 10 µM of 17% was found for COC(=O)[C@@H]1Cc2c([nH]c3ccccc23)[C@H](c2ccc(Br)cc2)N1 [Compound 3, Methyl (1S,3S)-1-(4-bromophenyl)-2,3,4,9-tetrahydro-1H-β-carboline-3-carboxylate] in this work.

An IC50 of 4.2 µM and an inhibition at 10 µM of 75% were found for COC(=O)[C@@H]1Cc2c([nH]c3ccccc23)[C@@H](c2ccc(Br)cc2)N1 [Compound 4, Methyl (1R,3S)-1-(4-bromophenyl)-2,3,4,9-tetrahydro-1H-β-carboline-3-carboxylate] in this work.

An IC50 of 2.8 µM and an inhibition at 10 µM of 94.4% were found for CCN1C(=O)[C@H]2Cc3c([nH]c4ccccc34)[C@@H](c3ccc(Br)cc3)N2C1=O [Compound 5, (5R,11aR)-5-(4-Bromophenyl)-2-ethyl-5,6,11,11a-tetrahydro-1H-imidazo[1′,5′:1,6]pyrido[3,4-b]indole-1,3(2H)-dione] in this work.

An IC50 of 3.9 µM and an inhibition at 10 µM of 89.3% were found for CCN1C(=O)[C@H]2Cc3c([nH]c4ccccc34)[C@H](c3ccc(Br)cc3)N2C1=O [Compound 6, (5S,11aR)-5-(4-Bromophenyl)-2-ethyl-5,6,11,11a-tetrahydro-1H-imidazo[1′,5′:1,6]pyrido[3,4-b]indole-1,3(2H)-dione] in this work.

An inhibition at 10 µM of 79.8% was found for CCN1C(=O)[C@@H]2Cc3c([nH]c4ccccc34)[C@H](c3ccc(Br)cc3)N2C1=O [Compound 7, (5S,11aS)-5-(4-Bromophenyl)-2-ethyl-5,6,11,11a-tetrahydro-1H-imidazo[1′,5′:1,6]pyrido[3,4-b]indole-1,3(2H)-dione] in this work.

An IC50 of 0.23 µM and an inhibition at 10 µM of 98.7% were found for CCCCN1C(=O)[C@H]2Cc3c([nH]c4ccccc34)[C@@H](c3ccc(Br)cc3)N2C1=O [Compound 9, (5R,11aR)-5-(4-Bromophenyl)-2-butyl-5,6,11,11a-tetrahydro-1H-imidazo[1′,5′:1,6]pyrido[3,4-b]indole-1,3(2H)-dione] in this work.

For CCCCN1C(=O)[C@H]2Cc3c([nH]c4ccccc34)[C@H](c3ccc(Br)cc3)N2C1=O [Compound 10, (5S,11aR)-5-(4-Bromophenyl)-2-butyl-5,6,11,11a-tetrahydro-1H-imidazo[1′,5′:1,6]pyrido[3,4-b]indole-1,3(2H)-dione], the IC50 was > 10 µM and the inhibition at 10 µM was 72.1%.

With CCCCN1C(=O)[C@@H]2Cc3c([nH]c4ccccc34)[C@H](c3ccc(Br)cc3)N2C1=O [Compound 11, (5S,11aS)-5-(4-Bromophenyl)-2-butyl-5,6,11,11a-tetrahydro-1H-imidazo[1′,5′:1,6]pyrido[3,4-b]indole-1,3(2H)-dione] the IC50 was > 10 µM and the inhibition at 10 µM was 81.5%.

An inhibition at 10 µM of 106% was found for CCCCN1C(=O)[C@@H]2Cc3c([nH]c4ccccc34)[C@@H](c3ccc(Br)cc3)N2C1=O [Compound 12, (5R,11aS)-5-(4-Bromophenyl)-2-butyl-5,6,11,11a-tetrahydro-1H-imidazo[1′,5′:1,6]pyrido[3,4-b]indole-1,3(2H)-dione] in this work.

An IC50 of 0.37 µM and an inhibition at 10 µM of 83% were found for CCC(C)N1C(=O)[C@H]2Cc3c([nH]c4ccccc34)[C@@H](c3ccc(Br)cc3)N2C1=O (stereo partly drawn) [Compound 13, (5R,11aR)-5-(4-Bromophenyl)-2-sec-butyl-5,6,11,11a-tetrahydro-1H-imidazo[1′,5′:1,6]pyrido[3,4-b]indole-1,3(2H)-dione] in this work.

An IC50 of 6 µM and an inhibition at 10 µM of 67% were found for CCC(C)N1C(=O)[C@H]2Cc3c([nH]c4ccccc34)[C@H](c3ccc(Br)cc3)N2C1=O (stereo partly drawn) [Compound 14, (5S,11aR)-5-(4-Bromophenyl)-2-sec-butyl-5,6,11,11a-tetrahydro-1H-imidazo[1′,5′:1,6]pyrido[3,4-b]indole-1,3(2H)-dione] in this work.

An IC50 of 3.3 µM and an inhibition at 10 µM of 72% were found for CCC(C)N1C(=O)[C@@H]2Cc3c([nH]c4ccccc34)[C@H](c3ccc(Br)cc3)N2C1=O (stereo partly drawn) [Compound 15, (5S,11aS)-5-(4-Bromophenyl)-2-sec-butyl-5,6,11,11a-tetrahydro-1H-imidazo[1′,5′:1,6]pyrido[3,4-b]indole-1,3(2H)-dione] in this work.

An IC50 of 0.15 µM and an inhibition at 10 µM of 92% were found for CCC(C)N1C(=O)[C@@H]2Cc3c([nH]c4ccccc34)[C@@H](c3ccc(Br)cc3)N2C1=O (stereo partly drawn) [Compound 16, (5R,11aS)-5-(4-Bromophenyl)-2-sec-butyl-5,6,11,11a-tetrahydro-1H-imidazo[1′,5′:1,6]pyrido[3,4-b]indole-1,3(2H)-dione] in this work.

An IC50 of 0.27 µM and an inhibition at 10 µM of 91% were found for CC(C)(C)N1C(=O)[C@H]2Cc3c([nH]c4ccccc34)[C@@H](c3ccc(Br)cc3)N2C1=O [Compound 17, (5R,11aR)-5-(4-Bromophenyl)-2-tert-butyl-5,6,11,11a-tetrahydro-1H-imidazo[1′,5′:1,6]pyrido[3,4-b]indole-1,3(2H)-dione] in this work.

An IC50 of 2.2 µM and an inhibition at 10 µM of 78% were found for CC(C)(C)N1C(=O)[C@H]2Cc3c([nH]c4ccccc34)[C@H](c3ccc(Br)cc3)N2C1=O [Compound 18, (5S,11aR)-5-(4-Bromophenyl)-2-tert-butyl-5,6,11,11a-tetrahydro-1H-imidazo[1′,5′:1,6]pyrido[3,4-b]indole-1,3(2H)-dione] in this work.

In the case of CC(C)(C)N1C(=O)[C@@H]2Cc3c([nH]c4ccccc34)[C@H](c3ccc(Br)cc3)N2C1=O [Compound 19, (5S,11aS)-5-(4-Bromophenyl)-2-tert-butyl-5-(4-bromophenyl)-5,6,11,11a-tetrahydro-1H-imidazo[1′,5′:1,6]pyrido[3,4-b]indole-1,3(2H)-dione], the “% PDE5 inhibition at 10 μM” value (10 μM, triplicate) is reported as 38%.

An IC50 of 0.27 µM and an inhibition at 10 µM of 94% were found for CC(C)(C)N1C(=O)[C@@H]2Cc3c([nH]c4ccccc34)[C@@H](c3ccc(Br)cc3)N2C1=O [Compound 20, (5R,11aS)-5-(4-Bromophenyl)-2-tert-butyl-5,6,11,11a-tetrahydro-1H-imidazo[1′,5′:1,6]pyrido[3,4-b]indole-1,3(2H)-dione] in this work.

For COC(=O)[C@H]1Cc2c([nH]c3ccccc23)[C@@H](c2ccc(Br)cc2)N1C(=O)CCl [Compound 21, Methyl (1R,3R)-1-(4-bromophenyl)-2-(chloroacetyl)-2,3,4,9-tetrahydro-1H-β-carboline-3-carboxylate], the IC50 was > 10 µM and the inhibition at 10 µM was 25%.

In the case of COC(=O)[C@@H]1Cc2c([nH]c3ccccc23)[C@H](c2ccc(Br)cc2)N1C(=O)CCl [Compound 23, Methyl (1S,3S)-1-(4-bromophenyl)-2-(2-chloroacetyl)-2,3,4,9-tetrahydro-1H-β-carboline-3-carboxylate], the IC50 is reported as > 10 µM and the inhibition at 10 µM is reported as 19%.

An IC50 of 6.6 µM and an inhibition at 10 µM of 94% were found for CN1CC(=O)N2[C@@H](c3ccc(Br)cc3)c3[nH]c4ccccc4c3C[C@@H]2C1=O [Compound 26, (6S,12aR)-6-(4-Bromophenyl)-2-methyl-2,3,6,7,12,12a-hexahydropyrazino [1′,2′:1,6]pyrido[3,4-b]indole-1,4-dione] in this work.

An IC50 of 1.9 µM and an inhibition at 10 µM of 87% were found for CN1CC(=O)N2[C@@H](c3ccc(Br)cc3)c3[nH]c4ccccc4c3C[C@H]2C1=O [Compound 27, (6S,12aS)-6-(4-Bromophenyl)-2-methyl-2,3,6,7,12,12a-hexahydropyrazino [1′,2′:1,6]pyrido[3,4-b]indole-1,4-dione] in this work.

An IC50 of 1.9 µM and an inhibition at 10 µM of 97.9% were found for CCN1CC(=O)N2[C@@H](c3ccc(Br)cc3)c3[nH]c4ccccc4c3C[C@@H]2C1=O [Compound 30, (6S,12aR)-2-Ethyl-6-(4-bromophenyl)-2,3,6,7,12,12a-hexahydropyrazino [1′,2′:1,6]pyrido[3,4-b]indole-1,4-dione] in this work.

An IC50 of 0.22 µM and an inhibition at 10 µM of 83% were found for CCN1CC(=O)N2[C@@H](c3ccc(Br)cc3)c3[nH]c4ccccc4c3C[C@H]2C1=O [Compound 31, (6S,12aS)-2-Ethyl-6-(4-bromophenyl)-2,3,6,7,12,12a-hexahydropyrazino [1′,2′:1,6]pyrido[3,4-b]indole-1,4-dione] in this work.

For CCN1CC(=O)N2[C@H](c3ccc(Br)cc3)c3[nH]c4ccccc4c3C[C@H]2C1=O [Compound 32, (6R,12aS)-2-Ethyl-6-(4-bromophenyl)-2,3,6,7,12,12a-hexahydropyrazino [1′,2′:1,6]pyrido[3,4-b]indole-1,4-dione], the IC50 was < 0.01 µM and the inhibition at 10 µM was 98.7%.

An IC50 of 6.6 µM and an inhibition at 10 µM of 81.5% were found for CCCCN1CC(=O)N2[C@@H](c3ccc(Br)cc3)c3[nH]c4ccccc4c3C[C@@H]2C1=O [Compound 34, (6S,12aR)-2-Butyl-6-(4-bromophenyl)-2,3,6,7,12,12a-hexahydropyrazino [1′,2′:1,6]pyrido[3,4-b]indole-1,4-dione] in this work.

An IC50 of 5.9 µM and an inhibition at 10 µM of 80% were found for CCCCN1CC(=O)N2[C@@H](c3ccc(Br)cc3)c3[nH]c4ccccc4c3C[C@H]2C1=O [Compound 35, (6S,12aS)-2-Butyl-6-(4-bromophenyl)-2,3,6,7,12,12a-hexahydropyrazino[1′,2′:1,6]pyrido[3,4-b]indole-1,4-dione] in this work.

An inhibition at 10 µM of 92% was found for CCCCN1CC(=O)N2[C@H](c3ccc(Br)cc3)c3[nH]c4ccccc4c3C[C@H]2C1=O [Compound 36, (6R,12aS)-2-Butyl-6-(4-bromophenyl)-2,3,6,7,12,12a-hexahydropyrazino [1′,2′:1,6]pyrido[3,4-b]indole-1,4-dione] in this work.

CC(C)(C)N1CC(=O)N2[C@H](c3ccc(Br)cc3)c3[nH]c4ccccc4c3C[C@@H]2C1=O [Compound 37, (6R,12aR)-6-(4-Bromophenyl)-2-tert-butyl-2,3,6,7,12,12a-hexahydropyrazino [1′,2′:1,6]pyrido[3,4-b]indole-1,4-dione] was tested, and the IC50 was > 10 µM and the inhibition at 10 µM was 30%.

An inhibition at 10 µM of 27% was found for CC(C)(C)N1CC(=O)N2[C@@H](c3ccc(Br)cc3)c3[nH]c4ccccc4c3C[C@@H]2C1=O [Compound 38, (6S,12aR)-6-(4-Bromophenyl)-2-tert-butyl-2,3,6,7,12,12a-hexahydropyrazino [1′,2′:1,6]pyrido[3,4-b]indole-1,4-dione] in this work.
